The record followed here is patent US6423692B2 (priority 1997, dated 2002).

What is called pIC50 is −log10 of the IC50, conventionally taken in molar units. Read a high pIC50 as a small IC50. What is called viability is a read-out of living cells in per cent, often relative to untreated cells.

The subject of one experiment is 9L-WT cells. Put plainly: Incorporation of ara-C into DNA. It counts as cell-based, rat. The note with it: one million cells. Here is the method:
(§1) Three and 6 h later, labeled cells were harvested, and digested by the addition of 2.5 mg proteinase-K (Boehringer-Mannheim, Indianapolis, Ind.) in 2 ml of 10 mM Tris (pH 7.4), 1 mM EDTA, and 0.5% SDS. Subsequent purification was accomplished by phenol extraction. The nucleic acids were precipitated, centrifuged, treated with RNase A and then assayed for radioactivity [Major, P. D., et al., Proc. Natl. Acad. Sci. USA 78:3235-3239 (1981)].

Experiment [1] concerns 9L-Neo cells. Put plainly: Incorporation of ara-C into DNA. It counts as cell-based, rat. The note with it: one million cells. Here is the method:
as §1

Experiment [2] has as its system 9L cells transduced by Ad.CMVβgal. As to the kind of experiment: Cytotoxic assay after adenoviral transduction. It counts as cell-based. The settings on record: Rattus norvegicus; Ad.CMVβgal at different MOIs, 48 h after transduction, 24 hours ara-C. On the procedure: (§2) FIGS. 6A and 6B show in vitro sensitivity to ara-C following transduction with dCK-expressing or control virus. 9L cells (2×10^3) were infected as follows: (FIG. 6A) Ad.CMVβgal at MOI 0 (●), 50 (▪), 500 ( ? ); and (FIG. 6B) Ad.CMVdCK at MOI 0 (◯), 50 (□) and 500 ( ? ). […] Cytotoxicity was determined by staining with methylene blue. […] The difference in cell killing was highly statistically significant for cells treated with Ad.CMVdCK at an MOI of 500 (P<0.00 1).
(§3) Cytotoxic assays were performed to determine whether 9L transduction by Ad.CMVdCK confers ara-C sensitivity. Forty-eight hours after transduction, 9L cells were exposed to various concentrations of ara-C for 24 hours. Forty-eight hours later, cells were assayed for cytotoxic effects.

Experiment [3] relates to 9L cells transduced by Ad.CMVdCK. Put plainly: Cytotoxic assay after adenoviral transduction. It counts as cell-based. The settings on record: Rattus norvegicus, 24 h. On the procedure: as §2, §3
The subject of experiment [4] is 9L-Neo tumors. As to the kind of experiment: Growth of intradermal tumors in syngeneic rat. It counts as in vivo, Fischer 344 rats. On the procedure: Implantation of intradermal tumors. […] Tumor volume was calculated by multiplying the values of three perpendicular diameters. Statistical analysis was performed using an unpaired, two-tailed, Student's t-test.
Treatment of animals. […] Oncol.

The subject of experiment [5] is 9L-Neo tumors. Put plainly: Survival of rats with intracerebral tumors. The settings on record: intracerebral 9L-Neo tumors, ara-C 200 mg/kg; P<0.02.
Procedure: 9L-Neo or 9L-dCK cells (2×10^4) were stereotaxically injected into right caudate nucleus of the brain.
In a second experiment, intracerebral tumors were established and rat survival was measured. Secondary to restricted intracranial volume, the survival of rats in this model represents a very reproducible parameter for determining the growth of transplanted tumors or tumor cell lines in vivo.
(§4) Implantation of intracerebral tumors. 9L-Neo and 9L-dCK cells were stereotaxically implanted into the right caudate nucleus of Fischer 344 rats using a modification of the method of Kobayashi [Kobayashi, N. et al. J. Neurosurg. […] In brief, male Fischer 344 rats (150-175 g) were anesthetized and placed in a small animal stereotaxic frame (Kopf Instruments). Tumor cells (2×10^4/10 μl) were injected with a 701 Hamilton syringe over 30 s to a depth of 4.5 mm, 1.3 mm posterior and 4 mm to the right of the bregma. […] Statistical significance of survival between different groups was assessed using log rank analysis of Kaplan Meier survival curves.
The test system of experiment [6] is 9L-Neo cells. As to the kind of experiment: cells. It counts as cell-based. The note with it: Rattus norvegicus, 120 h, read-out: Cytotoxicity, cell viability. Here is the method: Surviving cells were then counted 3 days later. Data represent means+s.e.m. […] Data represent the means +s.e.m. (bars) of five separate experiments.
In order to determine whether the dCK/ara-C-mediated bystander effect is dependent on direct cell-to-cell contact, 9L-Neo cells were plated on the bottom of a microliter transwell either directly with 9L-dCK cells or separated from the 9L-dCK cells by a 3-μm porous membrane. Significant cytotoxicity (38%+2% of control) was also seen in the 9L-Neo cells that were directly mixed in the bottom compartment with the 9L-dCK cells, compared with minimal cytotoxicity (81% of control) when the 9L-Neo cells were separated from the 9L-dCK cells by the membrane (FIG. 3b). The difference in cytotoxicity between cell-to-cell and membrane separated cell killing was statistically significant; P<0.01.

The next experiment concerns intracerebral 9L glioma. It counts as in vivo, Fischer 344 rats.

pIC50: −log10 of the molar value.

Procedure for intracerebral 9L glioma: 9L-Neo or 9L-dCK cells (2×10^4) were injected into right caudate nucleus of the brain. Four days later, viral vehicle or 2×10^8 PFU of recombinant adenoviruses were injected into the tumors stereotaxically using the same route of previous 9L inoculation (V).
Four days later, viral vehicle, or 2×10^8 PFU (plaque-forming units) of either the Ad.CMVβgal or Ad.CMVdCK vectors were stereotactically injected into the tumors.
as §4

For the compound `Nc1ccn([C@@H]2O[C@H](CO)[C@@H](O)[C@@H]2O)c(=O)n1` [ara-C, 1-β-D-arabinofuranosyl-cytosine], the “Incorporation of ara-C into DNA” value in the experiment with 9L-WT cells (3 hours, 10^−7 M [3H]ara-C) came to 0.359 ± 0.061 pmol; in the experiment with 9L-WT cells (3 hours, 10^−8 M [3H]ara-C), 0.054 ± 0.001 pmol; with 9L-WT cells (6 hours, 10^−7 M [3H]ara-C), 1.905 ± 0.652 pmol; with 9L-WT cells (6 hours, 10^−8 M [3H]ara-C), 0.305 ± 0.094 pmol; in the experiment with 9L-Neo cells [1] (3 hours, 10^−7 M [3H]ara-C), 0.502 ± 0.198 pmol; in the experiment with 9L-Neo cells [1] (3 hours, 10^−8 M [3H]ara-C), 0.067 ± 0.007 pmol. For the same compound, the “Incorporation of ara-C into DNA” value with 9L-Neo cells [1] (6 hours, 10^−7 M [3H]ara-C) was determined as 1.926 ± 0.259 pmol; in the experiment with 9L-Neo cells [1] (6 hours, 10^−8 M [3H]ara-C), 0.403 ± 0.101 pmol. Moreover, the pIC50 in experiment [2] is about 6.52; in experiment [3] (Ad.CMVdCK MOI 0, 24 hours ara-C) it was 6.52; in experiment [3] (Ad.CMVdCK MOI 50, 24 hours ara-C), 6.72; in experiment [3] (Ad.CMVdCK MOI 500, 24 hours ara-C, P<0.001), 7.10. Besides, the Tumor size with 9L-Neo tumors [4] (intradermal 9L-Neo tumors, ara-C 200 mg/kg s.c. every 8 h for 2 days, two courses) was 9556+2272 mm^3. Moreover, the “Growth of 9L-Neo tumors, ara-C versus PBS” value with 9L-Neo tumors [4] (intradermal, ara-C 200 mg/kg) was “no significant difference in the growth”. In addition, the “Prolongation of median survival compared with PBS-treated animals” value in the experiment on 9L-Neo tumors [5] amounted to 8 days. Moreover, the viability at 0.2 µM with 9L-Neo cells [6] was 38%. In the experiment with intracerebral 9L glioma (2×10^8 PFU Ad.CMVdCK intratumoral, versus viral vehicle or Ad.CMVβgal and ara-C, P<0.0005), the “Survival of animals treated with Ad.CMVdCK and ara-C” value is “survived much longer”. In the experiment with intracerebral 9L glioma (versus PBS-treated animals, P<0.02), the “Survival of vehicle and Ad.CMVβgal injected animals treated with ara-C” value is on record as “longer than that seen in the PBS-treated animals”.
